The conditions of assay [1]: in vitro transcription initiated with the cap analog; cited from earlier work.
The next assay deals with T7 RNA polymerase (Escherichia phage T7, UniProt P00573). The following applies: 2 hrs at 37 C, concluded from protein expression in mice. As for the experimental part: For ARCA and ARC CAP1 mRNAs, in vitro transcription was performed using the standard protocol (see Table, below). All of components were mixed, and T7 RNA polymerase (E2040 from NEB) was added in the reaction mixture. The transcription reaction was incubated for 2 hrs at 37 C. After 2 hrs of reaction time, DNASEI (NEB) and buffer were added to the transcription reaction and incubated for 15 mins at 37 C. The crude of reaction mix was purified using RNA purification kit (Macherey-Nagel).
T7 RNA polymerase, sequence (P00573 whole entry): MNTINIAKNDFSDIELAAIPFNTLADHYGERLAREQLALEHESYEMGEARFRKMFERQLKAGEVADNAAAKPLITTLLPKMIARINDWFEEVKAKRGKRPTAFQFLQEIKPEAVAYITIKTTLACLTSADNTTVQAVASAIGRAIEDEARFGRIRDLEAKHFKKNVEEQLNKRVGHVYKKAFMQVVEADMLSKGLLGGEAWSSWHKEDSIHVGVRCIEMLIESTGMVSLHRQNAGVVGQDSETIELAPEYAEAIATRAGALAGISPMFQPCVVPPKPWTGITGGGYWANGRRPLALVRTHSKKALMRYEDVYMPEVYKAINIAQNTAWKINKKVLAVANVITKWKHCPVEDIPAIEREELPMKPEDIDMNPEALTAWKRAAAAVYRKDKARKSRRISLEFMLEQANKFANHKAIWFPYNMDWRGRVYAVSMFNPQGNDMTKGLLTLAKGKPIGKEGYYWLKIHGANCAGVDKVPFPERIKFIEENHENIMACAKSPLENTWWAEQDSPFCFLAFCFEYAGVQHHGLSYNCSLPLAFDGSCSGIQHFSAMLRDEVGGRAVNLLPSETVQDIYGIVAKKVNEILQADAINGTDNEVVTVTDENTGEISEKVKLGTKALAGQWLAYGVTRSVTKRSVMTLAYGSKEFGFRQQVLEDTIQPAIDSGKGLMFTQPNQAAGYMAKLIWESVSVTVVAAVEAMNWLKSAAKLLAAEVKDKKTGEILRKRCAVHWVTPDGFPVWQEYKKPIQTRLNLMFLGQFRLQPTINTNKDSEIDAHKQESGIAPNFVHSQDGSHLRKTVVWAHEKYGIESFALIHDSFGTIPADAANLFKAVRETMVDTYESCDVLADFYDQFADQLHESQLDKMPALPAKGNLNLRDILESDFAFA

Assay [2] can be described thus: Protein expression in plasma (ELISA) after i.v. delivery of m^7G(5′)p3-RNA to mice. The assay is classed as in vivo. In general terms: An ELISA detects its analyte on a solid surface through an enzyme-linked reagent.
Assay [3] relates to rabbit reticulocyte lysate system. Conditions: mRNA transcribed with the cap analog; cited from earlier work.

In the case of `Cn1c[n+]([C@@H]2O[C@H](COP(=O)(O)OP(=O)([O-])OP(=O)(O)OC[C@H]3O[C@@H](n4cnc5c(=O)[nH]c(N)nc54)[C@H](O)[C@@H]3O)[C@@H](O)[C@H]2O)c2nc(N)[nH]c(=O)c21` [m^7G(5′)p3(5′)G], in assay [1], the “caps oriented in the reverse direction / reverse-orientation transcript” value is reported as “one third to one half of the caps oriented in the reverse direction”.

Consider `CO[C@H]1[C@@H](O)[C@H](n2c[n+](C)c3c(=O)[nH]c(N)nc32)O[C@@H]1COP(=O)(O)OP(=O)(O)OP(=O)(O)OC[C@H]1O[C@@H](n2cnc3c(=O)[nH]c(N)nc32)[C@H](O)[C@@H]1O` [ARCA, 3′-OMe-m^7G(5′)p3G], for which the “caps oriented in the reverse direction / reverse-orientation transcript” value in assay [1] was “without reversal”.

For `CO[C@@H]1[C@H](OP(=O)(O)OC[C@H]2O[C@@H](n3cnc4c(=O)[nH]c(N)nc43)[C@H](O)[C@@H]2O)[C@@H](COP(=O)(O)OP(=O)(O)OP(=O)([O-])OC[C@H]2O[C@@H]([n+]3cn(C)c4c(=O)[nH]c(N)nc43)[C@H](O)[C@@H]2O)O[C@H]1n1cnc2c(N)ncnc21` [ARC CAP1, m^7G(5′)p3AmpG], the efficiency of transcription entry on T7 RNA polymerase is on record as “substantially improved compared to dinucleotide ARCA”. Moreover, the “efficiency of translation of capped RNA” value in assay [2] (compared with enzymatically (vaccinia) capped RNA) is reported as “just as efficient translated as enzymatically capped RNA”. Further, the “amount of protein expression” value in assay [2] (m^7G(5′)p3-RNA 0.3 mg/kg i.v., male mice, plasma 6 hours post dose, ELISA, FIG. 16) is on record as “greater than ARCA”. For the same compound, the “translational efficiency (rank order of cap structures)” value in assay [3] is listed as “greatest”.

The record behind these values is patent US10968248B2, “Trinucleotide mRNA cap analogs” (c/o Arcturus Therapeutics, Inc., priority 2016, dated 2021).
